Laboratory results published in patent US20150166505A1, “PYRIDINYL-SUBSTITUTED PYRAZOLYL CARBOXAMIDES” (GRÜNENTHAL GMBH, priority 2013, published 2015).
Read-outs that look alike come from different tables or passages of the source.

Columns and labels:
[1] = test system: Interleukin-2 (IL-2) production/release in Jurkat T cell line; test: Jurkat IL-2 Production Assay; type: cell-based; conditions: Homo sapiens; Jurkat T cells, PHA stimulation 22 hours
Experimental: Jurkat IL-2 Production Assay
The effect of compounds of the invention on Interleukin-2 (IL-2) production/release was tested in the Jurkat T cell line (ECACC) clone E6-1. Jurkat T cells were cultured in DMEM/F12/Glutamax (Gibco) containing 10% FCS (Gibco), and maintained at 37° C., 5% CO2. Cell were split twice a week [5*10^6 (Mon-Thu) and 1*10^7 (Thu-Mon) cells/50 ml medium in T-175 ZK culture flasks, respectively]. Prior to experiment, cells were seeded on 96 well plates (Cellstar 96 Well; Cat No. 655180, Greiner bio-one) at a density of 5*10^5 cells/well in DMEM/F12/Glutamax (Gibco) containing 10% FCS (Gibco), and incubated for 60 min at 37° C., 5% CO2. Subsequently, compounds were added and cells were allowed to incubate for 30 min at 37° C., 5% CO2. Cells were then stimulated with 15 μg/ml Phytohemagglutinin (PHA; Sigma) for 22 hours at 37° C., 5% CO2. Before sampling of the supernatants, cells were spun down (200*g/5 min/RT). The amount of IL-2 released into the supernatant was quantified with the human IL-2 AlphaLisa kit (Perkin Elmer) according to manufacturer's instructions. Luminescence proximity measurements were carried out in the Synergy H4 reader (BioTek) employing the fluorescence setting of the reader (ex: 680/30 nm; em: 620/40 nm). Inhibition of IL-production/release in/from Jurkat T cells was quantified as follows: Zero percent inhibition (MAX) was defined as the [IL-2] determined in supernatants derived from cells to which PHA & DMSO-only had been added instead of compound. Hundred percent inhibition (MIN) was defined as the [IL-2] determined in supernatants derived from cells that had been pre-treated with 1 μM CyclosporineA (Sigma) before the addition of 15 μg/ml PHA. For routine IC50 determinations of compounds, 8 concentrations of a serial dilution (1:3.16) were tested, starting off from 10 μM.

[2] = biological target: T1, CRAC channel (endogenous SOC in HEK293 cells) (Homo sapiens, UniProt Q96D31); test: HEK Calcium Influx Assay (FLIPR); type: cell-based
T1 construct: endogenous in cells; host or cells: HEK293 (ECACC)
Experimental: The effect of compounds of the invention on intracellular [Ca^2+] was tested in the HEK293 cell line (ECACC). HEK293 cells were cultured in DMEM/F12/Glutamax (Gibco) containing 10% FCS (Gibco), and maintained at 37° C., 5% CO2. Cell were split twice a week [3*10^6 (Mon-Thu) and 1*10^6 (Thu-Mon) cells/50 ml medium in T-175 ZK culture flasks, respectively]. Twenty four hours pre-experiment, cells were seeded on 96 well plates (Poly-D-Lysine 96well Black/Clear Plate, BD Biocoat REF 356640) at a density of 40,000 cells/well in DMEM/F12 (Gibco) containing 10% FCS (Gibco), and maintained at 37° C., 5% CO2. Prior to store-depletion, cell culture medium was removed and cells were loaded with the a Calcium-sensitive fluorescent dye comprised within the Calcium-4-assay kit (Molecular Devices) in nominally Ca^2+-free HBS buffer (140 mM NaCl, 4 mM KCl, 0.2 mM MgCl2, 11 mM D-glucose, and 10 mM HEPES, pH 7.4) according to manufacturer's instruction for 60 min at 37° C., 5% CO2. Passive depletion of intracellular Ca^2+-stores was then triggered by employing the SERCA inhibitor thapsigargin (2 μM final) for 10 min in the dark (RT). To prevent immediate Ca^2+-entry via the activated Store-operated channels (SOCs), cells were maintained in Ca^2+-free HBS buffer comprising 100 μM EGTA during store-depletion. Intracellular changes in [Ca^2+] were subsequently monitored with the FLIPR device (Molecular Devices). In brief, baseline imaging post-store depletion was allowed for 1 min before adjusting the extracellular buffer to 3 mM CaCl2. Increases in intracellular [Ca^2+] due to pre-activated SOC channels were monitored for 15 min until intracellular Ca^2+ levels had declined into a steady-state. Finally, compounds were administered and Ca^2+ signals were recorded for additional 10 min. Inhibition of endogenous SOC in HEK293 cells was quantified employing the average Ca^2+ signal measured from 9.5-10 min post-administration. Zero percent inhibition (MAX) was defined as the Ca^2+ signal recorded from wells to which DMSO-only had been added instead of compound. Hundred percent inhibition (MIN) was defined as the signal obtained from wells in which cells haven't been treated with TG prior to Ca^2+ addition and to which DMSO-only had been added instead of compound. For routine IC50 determinations of compounds, 8 concentrations of a serial dilution (1:3.16) were tested, starting off from 10 μM. Reliable IC50's could consequently be determined only, if they were at least sub 2.5-3 μM.

[3] = thapsigargin store depletion, read-out: % inhib. [@ 10 μM] FLIPR
[4] = numeric values of Table 2, read-out: inhib. [@ 10 μM] FLIPR

T1 sequence (Q96D31 whole entry): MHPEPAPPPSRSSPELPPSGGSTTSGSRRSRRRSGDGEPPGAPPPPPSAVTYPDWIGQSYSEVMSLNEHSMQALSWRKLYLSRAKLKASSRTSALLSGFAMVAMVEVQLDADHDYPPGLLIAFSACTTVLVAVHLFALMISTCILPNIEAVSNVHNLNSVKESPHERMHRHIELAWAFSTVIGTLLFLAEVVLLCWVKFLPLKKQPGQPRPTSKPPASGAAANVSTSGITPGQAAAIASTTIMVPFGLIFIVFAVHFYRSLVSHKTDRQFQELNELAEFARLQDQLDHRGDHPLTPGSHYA

Row | Compound | IC50 [1] [µM] | inhibition at 10 µM [2, 3] [%] | inhibition at 10 µM [2, 4] [%]
1 | COc1cc(OCC(F)(F)F)ncc1-c1cc(C(=O)Nc2c(F)cccc2F)nn1C [Example 46, N-(2,6-Difluoro-phenyl)-5-[4-methoxy-6-(2,2,2-trifluoro-ethoxy)-pyridin-3-yl]-1-methyl-1H-pyrazole-3-carboxylic acid amide] | < 0.5 | > 70 | 
2 | COc1cc(C)c(-c2cc(C(=O)Nc3c(F)cccc3F)nn2C)cn1 [Example 58, N-(2,6-Difluoro-phenyl)-5-(6-methoxy-4-methyl-pyridin-3-yl)-1-methyl-1H-pyrazole-3-carboxylic acid amide] | 1 to 5 |  | 
3 | Cc1cc(OC(C)C)ncc1-c1cc(C(=O)Nc2c(F)cncc2F)nn1C [Example 52, N-(3,5-Difluoro-pyridin-4-yl)-5-(6-isopropoxy-4-methyl-pyridin-3-yl)-1-methyl-1H-pyrazole-3-carboxylic acid amide] | 0.5 to 1 |  | 
4 | COc1cc(C2CC2)ncc1-c1cc(C(=O)Nc2c(F)cncc2F)nn1C [Example 53, 5-(6-Cyclopropyl-4-methoxy-pyridin-3-yl)-N-(3,5-difluoro-pyridin-4-yl)-1-methyl-1H-pyrazole-3-carboxylic acid amide] | 0.5 to 1 |  | 
5 | COc1cc(C(F)(F)F)ncc1-c1cc(C(=O)Nc2c(F)cccc2F)nn1C [Example 42, N-(2,6-Difluoro-phenyl)-5-[4-methoxy-6-(trifluoromethyl)-pyridin-3-yl]-1-methyl-1H-pyrazole-3-carboxylic acid amide] | 0.5 to 1 |  | 
6 | Cc1cc(COc2cc(C)c(-c3cc(C(=O)Nc4c(F)cccc4F)nn3C)cn2)no1 [Example 19, N-(2,6-Difluoro-phenyl)-1-methyl-5-[4-methyl-6-[(5-methyl-isoxazol-3-yl)-methoxy]-pyridin-3-yl]-1H-pyrazole-3-carboxylic acid amide] |  | > 70 | 113
7 | Cc1cc(OCC2CCC2)ncc1-c1cc(C(=O)Nc2c(F)cccc2F)nn1C [Example 18] | 1 to 5 |  | 
8 | Cc1cc(C#N)ncc1-c1cc(C(=O)Nc2c(F)cccc2F)nn1C [Example 41, 5-(6-Cyano-4-methyl-pyridin-3-yl)-N-(2,6-difluoro-phenyl)-1-methyl-1H-pyrazole-3-carboxylic acid amide] |  | < 50 | 

Other lines, results leading:

Row | IC50 [1] [µM] | inhibition at 10 µM [2, 3] [%] | inhibition at 10 µM [2, 4] [%] | Compound
9 | 1 to 5 |  |  | COc1cc(N(C)C)c(-c2cc(C(=O)Nc3c(F)cccc3F)nn2C)cn1 [Example 75, N-(2,6-Difluoro-phenyl)-5-(4-dimethylamino-6-methoxy-pyridin-3-yl)-1-methyl-1H-pyrazole-3-carboxylic acid amide]
10 |  | 50 to 70 | 67 | COCc1cc(C)c(-c2cc(C(=O)Nc3c(F)cccc3F)nn2C)cn1 [Example 59, N-(2,6-Difluoro-phenyl)-5-[6-(methoxymethyl)-4-methyl-pyridin-3-yl]-1-methyl-1H-pyrazole-3-carboxylic acid amide]
11 |  | < 50 |  | COc1cc(O)ncc1-c1cc(C(=O)Nc2c(F)cccc2F)nn1C [Example 70, N-(2,6-Difluoro-phenyl)-5-(6-hydroxy-4-methoxy-pyridin-3-yl)-1-methyl-1H-pyrazole-3-carboxylic acid amide]
12 |  | < 50 |  | CCOc1cc(O)c(-c2cc(C(=O)Nc3c(F)cccc3F)nn2C)cn1 [Example 71, N-(2,6-Difluoro-phenyl)-5-(6-ethoxy-4-hydroxy-pyridin-3-yl)-1-methyl-1H-pyrazole-3-carboxylic acid amide]
13 |  | < 50 |  | Cn1nc(C(=O)Nc2c(F)cccc2F)cc1-c1nc(C(C)(C)C)ccc1C#N [Example 73, 5-(6-tert-Butyl-3-cyano-pyridin-2-yl)-N-(2,6-difluoro-phenyl)-1-methyl-1H-pyrazole-3-carboxylic acid amide]
14 |  | < 50 |  | Cn1nc(C(=O)Nc2c(F)cccc2F)cc1-c1nc(C(F)(F)F)ccc1C#N [Example 72, 5-[3-Cyano-6-(trifluoromethyl)-pyridin-2-yl]-N-(2,6-difluoro-phenyl)-1-methyl-1H-pyrazole-3-carboxylic acid amide]
